Measurements from PMC10044120, “Potent and selective covalent inhibition of the papain-like protease from SARS-CoV-2” (Nature Communications, 2023).
Read-outs that look alike come from different tables or passages of the source.

How the values were obtained:
[1] = biological target: SARS-CoV-2 PLpro (Severe acute respiratory syndrome coronavirus 2, UniProt P0DTD1); experiment: biochemical; conditions: PLpro 10 nM, ISG15-CHOP2
[2] = in vitro; conditions: African green monkey
[3] = system: SARS-CoV-2 Omicron (B.1.1.529); experiment: CPE assay, neutral red, Vero E6 cells with 2 μM CP-100356, Omicron; type: cell-based; conditions: Severe acute respiratory syndrome coronavirus 2, Vero C1008
[4] = system: SARS-CoV-2 Delta (B.1.617.2); experiment: CPE assay, neutral red, Vero E6 cells with 2 μM CP-100356, Delta; type: cell-based; conditions: Severe acute respiratory syndrome coronavirus 2, Vero C1008
[5] = Pharmacokinetics in male ICR mice (IV and PO)
[6] = Metabolic stability in human liver S9 fraction
[7] = system: SARS-CoV-2 USA-WA1/2020; experiment: microbe, parasite or virus in culture; type: cell-based; conditions: for Virus Titer: USA-WA1/2020
[8] = in vitro; conditions: human
[9] = system: SARS-CoV-2 USA-WA1/2020; experiment: CPE assay, neutral red, Vero E6 cells with 2 μM CP-100356, USA-WA1/2020; type: cell-based; conditions: for Percent Cytopathic Effect (Neutral Red): USA-WA1/2020
[10] = biological target: T1, UCHL1 (Homo sapiens, UniProt P09936); experiment: biochemical; conditions: UCHL1 10 nM, Ub-rhodamine110
T1 construct: purchased LifeSensors, Inc. (Malvern, PA)

[11] = Cytotoxicity in uninfected Vero E6 cells, CellTiter-Glo; conditions: African green monkey
[12] = system: Vero E6 cells; experiment: as above
[13] = system: Vero E6 cells
[14] = system: SARS-CoV-2 Omicron (B.1.1.529); experiment: microbe, parasite or virus in culture; type: cell-based; conditions: Severe acute respiratory syndrome coronavirus 2; Omicron (B1.1.529), Caco-2
[15] = biological target: T2, PLpro from SARS-CoV-2 (Severe acute respiratory syndrome coronavirus 2, UniProt P0DTD1); experiment: biochemical; type: biochemical; conditions: 0.5 h
[16] = biological target: T2, PLpro from SARS-CoV-2; experiment: biochemical; type: biochemical; parameters: mean (kobs plot, Supplementary Figure 6 II): unit: min^-1
[17] = Metabolic stability in human liver microsomes
[18] = Metabolic stability in rat liver microsomes; conditions: Sprague-Dawley
[19] = male, ICR (CD-1), mouse, plasma, iv, 3 mg/kg

T1 sequence (P09936 whole entry): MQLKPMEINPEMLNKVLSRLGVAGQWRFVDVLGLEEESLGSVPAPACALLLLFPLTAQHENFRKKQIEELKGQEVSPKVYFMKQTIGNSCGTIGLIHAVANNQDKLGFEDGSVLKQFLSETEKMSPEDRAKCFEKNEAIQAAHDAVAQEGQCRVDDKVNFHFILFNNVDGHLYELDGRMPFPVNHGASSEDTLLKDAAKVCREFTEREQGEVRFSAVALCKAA

COC(=O)/C=C/C(=O)NNC(=O)CCc1ccccc1C(=O)N[C@H](C)c1cccc2ccccc12 [Compound 7, methyl(R,E)-4-(2-(3-(2-((1-(naphthalen-1 yl)ethyl)carbamoyl)phenyl)propanoyl)hydrazineyl)-4-oxobut-2-enoate]
Hill slope [1]: 1.34
CC50 [2]: > 10000 nM
cytotoxicity at 0.01 µM [2]: 6.3%
cytotoxicity at 0.1 µM [2]: 1.1%
cytotoxicity at 1 µM [2]: 3.3%
cytotoxicity at 10 µM [2]: 27.4%
cytotoxicity at 0.01 µM ([2]; Percent Cytotoxicity (Neutral Red), Vero E6, SARS2-733 (Delta set), 0.01 µM): 11.8%
cytotoxicity at 0.1 µM ([2]; Percent Cytotoxicity (Neutral Red), Vero E6, SARS2-733 (Delta set), 0.1 µM): 7.1%
cytotoxicity at 1 µM ([2]; Percent Cytotoxicity (Neutral Red), Vero E6, SARS2-733 (Delta set), 1 µM): 4.8%
cytotoxicity at 10 µM ([2]; Percent Cytotoxicity (Neutral Red), Vero E6, SARS2-733 (Delta set), 10 µM): 9.3%
cytotoxicity at 0.01 µM ([2]; Percent Cytotoxicity (Neutral Red), Vero E6, SARS2-735, 0.01 µM): 0%
cytotoxicity at 0.1 µM ([2]; Percent Cytotoxicity (Neutral Red), Vero E6, SARS2-735, 0.1 µM): 0%
cytotoxicity at 1 µM ([2]; Percent Cytotoxicity (Neutral Red), Vero E6, SARS2-735, 1 µM): 3.8%
cytotoxicity at 10 µM ([2]; Percent Cytotoxicity (Neutral Red), Vero E6, SARS2-735, 10 µM): 38.5%
EC50 [3]: 680 nM
EC50 [4]: 290 nM
oral bioavailability / exposure following PO dosing ([5]; 10 mg/kg p.o., male ICR mice): not orally bioavailable
AUC(0-inf) [5, 19]: 5 ng·h/mL
AUC(0-t) [5, 19]: 4 ng·h/mL
C0 [5, 19]: 63 ng/mL
Vd [5, 19]: 35.2 L/kg
half-life [5, 19]: 3.6 min
half-life [6]: 60 min
microsomal CLint [6]: 38.9 µL/min/mg
EC90 ([7]; Severe acute respiratory syndrome coronavirus 2, Caco-2): 260 nM
Virus Titer ([7]; 0.01 µM): 4.0 CCID50/mL (Log10)
Virus Titer ([7]; 0.1 µM): 1.7 CCID50/mL (Log10)
Virus Titer ([7]; 1 µM): <0.7 CCID50/mL (Log10)
Virus Titer ([7]; 10 µM): <0.7 CCID50/mL (Log10)
CC50 [8]: > 10000 nM
cytotoxicity at 0.01 µM [8]: 8.4%
cytotoxicity at 0.1 µM [8]: 3.4%
cytotoxicity at 1 µM [8]: 0.326%
cytotoxicity at 10 µM [8]: 18.1%
cytotoxicity at 0.01 µM ([8]; Percent Cytotoxicity (Neutral Red), Caco-2, SARS2-740 (Delta set), 0.01 µM): 0%
cytotoxicity at 0.1 µM ([8]; Percent Cytotoxicity (Neutral Red), Caco-2, SARS2-740 (Delta set), 0.1 µM): 0%
cytotoxicity at 1 µM ([8]; Percent Cytotoxicity (Neutral Red), Caco-2, SARS2-740 (Delta set), 1 µM): 8%
cytotoxicity at 10 µM ([8]; Percent Cytotoxicity (Neutral Red), Caco-2, SARS2-740 (Delta set), 10 µM): 4.4%
cytotoxicity at 0.01 µM ([8]; Percent Cytotoxicity (Neutral Red), Caco-2, SARS2-740 (USA-WA1/2020 set), 0.01 µM): 1.6%
cytotoxicity at 0.1 µM ([8]; Percent Cytotoxicity (Neutral Red), Caco-2, SARS2-740 (USA-WA1/2020 set), 0.1 µM): 0%
cytotoxicity at 1 µM ([8]; Percent Cytotoxicity (Neutral Red), Caco-2, SARS2-740 (USA-WA1/2020 set), 1 µM): 0%
cytotoxicity at 10 µM ([8]; Percent Cytotoxicity (Neutral Red), Caco-2, SARS2-740 (USA-WA1/2020 set), 10 µM): 39.6%
EC50 ([9]; Severe acute respiratory syndrome coronavirus 2, Vero C1008): 68 nM
Percent Cytopathic Effect (Neutral Red) ([9]; 0.01 µM): 90.5%
Percent Cytopathic Effect (Neutral Red) ([9]; 0.1 µM): 41.8%
Percent Cytopathic Effect (Neutral Red) ([9]; 1 µM): 46.4%
Percent Cytopathic Effect (Neutral Red) ([9]; 10 µM): 13.5%
IC50 [10]: > 30000 nM
viability at 48 h, 2.08 µM ([11]; % cell viability, cytotoxicity, 2.08 uM): 100%
viability at 48 h, 8.33 µM ([11]; % cell viability, cytotoxicity, 8.33 uM): 99.6%
viability at 48 h, 16.65 µM ([11]; % cell viability, cytotoxicity, 16.65 uM): 95.7%
CC50 at 48 h ([11]; CC50, uninfected Vero E6 cells): > 30000 nM
% cell viability, cytotoxicity ([12]; 2.08 uM): 98.575%
% cell viability, cytotoxicity ([12]; 8.33 uM): 99.545%
% cell viability, cytotoxicity ([12]; 16.65 uM): 90.390%
CC50 < 30 μM ([12]; uninfected Vero E6 cells, Yes/No): No
CC50 ([13]; Vero E6, 2 μM CP-100356, Delta rows): > 10000 nM
CC50 ([13]; Vero E6, 2 μM CP-100356, Omicron rows): > 10000 nM
EC90 [14]: 2400 nM
remaining activity at 0.06 µM ([15]; 0.06 uM inhibitor): 66.6%
remaining activity at 0.2 µM ([15]; 0.20 uM inhibitor): 17.4%
remaining activity at 20.03 µM ([15]; 20.03 uM inhibitor): 2.85%
remaining activity at 200 µM ([15]; 200.00 uM inhibitor, 30-min preincubation): 4.35%
remaining activity at 0.06 µM ([15]; inhibitor 0.06 uM): 66.6%
remaining activity at 0.2 µM ([15]; inhibitor 0.20 uM): 17.4%
remaining activity at 20 µM ([15]; inhibitor 20.00 uM): 2.85%
remaining activity at 200 µM ([15]; inhibitor 200.00 uM): 4.35%
Kobs, mean ([16]; 0.10 uM): 0.00424 min⁻¹
Kobs, mean ([16]; 0.20 uM): 0.03867 min⁻¹
Kobs, mean ([16]; 0.30 uM): 0.09135 min⁻¹
remaining activity at 0.1 µM ([16]; 5 min, read-out: PLpro activity after preincubation, inhibitor 0.1 uM, preincubation 5 min): 95.7%
remaining activity at 0.2 µM ([16]; 5 min, read-out: PLpro activity after preincubation, inhibitor 0.2 uM, preincubation 5 min): 105%
remaining activity at 0.3 µM ([16]; 10 min, read-out: PLpro activity after preincubation, inhibitor 0.3 uM, preincubation 10 min): 30.7%
remaining activity at 0.3 µM ([16]; 0.5 h, read-out: PLpro activity after preincubation, inhibitor 0.3 uM, preincubation 30 min): 17.7%
remaining activity at 0.1 µM ([16]; 1 h, read-out: PLpro activity after preincubation, inhibitor 0.1 uM, preincubation 60 min): 74.1%
remaining activity at 0.2 µM ([16]; 1 h, read-out: PLpro activity after preincubation, inhibitor 0.2 uM, preincubation 60 min): 2.6%
remaining activity at 0.1 µM ([16]; […], read-out: PLpro activity after preincubation, inhibitor 0.1 uM, preincubation 15 min): 104%
remaining activity at 0.1 µM ([16]; […], read-out: PLpro activity after preincubation, inhibitor 0.1 uM, preincubation 45 min): 75.3%
remaining activity at 0.2 µM ([16]; […], read-out: PLpro activity after preincubation, inhibitor 0.2 uM, preincubation 15 min): 59.4%
remaining activity at 0.2 µM ([16]; […], read-out: PLpro activity after preincubation, inhibitor 0.2 uM, preincubation 90 min): 0.514%
remaining activity at 0.3 µM ([16]; […], read-out: PLpro activity after preincubation, inhibitor 0.3 uM, preincubation 15 min): 26.7%
Time dep. (time-dependent inhibition) ([16]; fluorogenic peptide assay, varied preincubation time): Yes
mean (kobs plot, Supplementary Figure 6 II) ([16]; inhibitor 0.10 uM): 0.00424
mean (kobs plot, Supplementary Figure 6 II) ([16]; inhibitor 0.20 uM): 0.03867
mean (kobs plot, Supplementary Figure 6 II) ([16]; inhibitor 0.30 uM): 0.09135
half-life [17]: 50 min
microsomal CLint [17]: 139 µL/min/mg
half-life [18]: 46 min
microsomal CLint [18]: 151 µL/min/mg
